{"source": "PubChem BioAssay AID489032", "about": "(Sanford-Burnham Center for Chemical Genomics, 2010)", "note": "Calls of active or inactive are those of the source. The rule behind the calls is not given here."}
{"test_system": "UPR adaptive arm reporter cells, luciferase luminescence", "test": "activators of adaptive UPR signalling, dose response, cell-based, luciferase luminescence (AID 489032)"}
{"smiles": "N#C/C(=C\\Nc1ccc2cn[nH]c2c1)c1nc(-c2ccc(Cl)cc2)cs1", "EC50": "15.1 µM"}
{"smiles": "CC(=O)Nc1ccccc1Sc1ccc2c3c(cccc13)C(=O)N(c1ccc(C)cc1)C2=O", "EC50": "> 80 µM (inactive)"}
{"smiles": "O=C(/C=C/c1ccc(Cl)cc1)NC(=S)Nc1ccc(N2CCOCC2)c(Cl)c1", "EC50": "> 80 µM (inactive)"}
{"smiles": "CCOC(=O)C(=CNc1nc(-c2ccccc2)c(C(=O)Nc2ccc(-c3ccccc3)cc2)s1)C(=O)OCC", "EC50": "24.7 µM (inactive)"}
{"smiles": "Cc1ccc(-c2cc(C(F)F)n3ncc(C(=O)N4CCc5ccccc54)c3n2)cc1", "EC50": "27.2 µM (inactive)"}
{"smiles": "Cc1c(C(=O)Nc2nccs2)oc2ccc(Br)cc12", "EC50": "> 80 µM (inactive)"}
{"smiles": "Cn1nc(C(F)(F)F)c(/C=N/OC(=O)c2ccccc2)c1SCc1ccccc1Cl", "EC50": "10.3 µM"}
{"smiles": "CCOC(=O)c1c2ccc(OCC(=O)N/N=C/c3ccc(C)cc3)cc2n2ccccc12", "EC50": "> 80 µM (inactive)"}
{"smiles": "Brc1ccc(C2=Nn3c(nnc3-c3n[nH]c4c3CCC4)SC2)cc1", "EC50": "28.3 µM (inactive)"}
{"smiles": "CCOc1cc(/C=C(\\C#N)c2[nH]nc(N)c2C#N)ccc1O", "EC50": "> 80 µM (inactive)"}
{"smiles": "CCOc1cc(/C=N\\Nc2ccc([N+](=O)[O-])cc2)ccc1OCC(=O)Nc1ccc(C)c(C)c1", "EC50": "43.2 µM (inactive)"}
{"smiles": "Cc1[nH]c2ccccc2c1/C=C/c1nc2ccccc2c(=O)n1-c1ccc([N+](=O)[O-])cc1", "EC50": "> 80 µM (inactive)"}
{"smiles": "Cc1ccc2c(c1)C(c1ccc(N3CCOCC3)cc1)=NNC(c1cccs1)=N2", "EC50": "46.9 µM (inactive)"}
{"smiles": "N=c1n(CC(=O)c2ccc([N+](=O)[O-])cc2)c2ccccc2n1Cc1ccc(Cl)cc1", "EC50": "> 80 µM (inactive)"}
{"smiles": "CCc1ccc2nc(N(CCCN(C)C)C(=O)c3ccc(S(=O)(=O)N4CCc5ccccc5C4)cc3)sc2c1", "EC50": "> 80 µM (inactive)"}
{"smiles": "CCOc1ccc(Cn2c3ccc(OC)cc3c3nc4ccccc4nc32)cc1OC", "EC50": "> 80 µM (inactive)"}
{"smiles": "COc1ccc(Cc2nnc(N/N=C/c3ccc(N(C)C)cc3)[nH]c2=O)cc1OC", "EC50": "25.5 µM (inactive)"}
{"smiles": "Cc1cccc(NC(=O)CSc2nc(C)c(CC(=O)c3ccc(Br)cc3)c(C)c2C#N)c1C", "EC50": "> 80 µM (inactive)"}
{"smiles": "COc1ccc(OC)c(Nc2nc(NCc3ccco3)nc(N)c2[N+](=O)[O-])c1", "EC50": "> 80 µM (inactive)"}
{"smiles": "CC1CCC(C(C)C)C(OC(=O)Cn2c(-c3ccc(Cl)cc3)[n+](C)c3ccccc32)C1", "note": "(configuration not stated)", "EC50": "> 80 µM (inactive)"}
{"smiles": "CCOC(=O)C1=C(C)n2c(s/c(=C/c3cccc([N+](=O)[O-])c3)c2=O)=NC1c1ccc(O)c(OC)c1", "note": "(configuration not stated)", "EC50": "> 80 µM (inactive)"}
{"smiles": "C/C(=N\\Nc1ncnc2sc(C)c(C)c12)c1ccccn1", "EC50": "> 80 µM (inactive)"}
{"smiles": "FC(F)(F)c1nnc2c(Sc3ccccc3)nc3ccc(Cl)cc3n12", "EC50": "> 80 µM (inactive)"}
{"smiles": "CCCOC(=O)c1cccc(Nc2nc(-c3cccnc3)nc3ccccc23)c1", "EC50": "> 80 µM (inactive)"}
{"smiles": "CCC[C@@H](CN[C@@H](CNC)[C@H](C)CC)NCC1CCC(C(C)(C)C)CC1", "note": "(some centres not stated)", "EC50": "> 80 µM (inactive)"}
{"smiles": "CC(C)(C)C(=O)NC(=S)NNC(=O)c1sc2ccccc2c1Cl", "EC50": "> 80 µM (inactive)"}
{"smiles": "O=C(CSc1nc2ccc(Nc3nc(N4CCOCC4)nc(N4CCOCC4)n3)cc2s1)Nc1ccccc1F", "EC50": "11.7 µM"}
{"smiles": "COc1cc(NC(=O)c2ccco2)c(C(=O)OCC(=O)c2c[nH]c3ccccc23)cc1OC", "EC50": "> 80 µM (inactive)"}
{"smiles": "COc1ccc(NC(=O)C(=O)N/N=C\\c2ccc(CNC(=O)C(=O)Nc3ccc(C)c(C)c3)o2)c(OC)c1", "EC50": "> 80 µM (inactive)"}
{"smiles": "COc1ccccc1-c1cc(-c2ccccc2)nc(SC(C(N)=O)c2ccccc2)c1C#N", "note": "(configuration not stated)", "EC50": "71.2 µM (inactive)"}
{"smiles": "Cc1ccc2c(c1)c(N=NC(N)=S)c(O)n2Cc1ccccc1", "EC50": "61.8 µM (inactive)"}
{"smiles": "CCN(CC)c1ccc(C(=O)OCC(=O)Nc2cc3oc4ccccc4c3cc2OC)cc1", "EC50": "25.8 µM (inactive)"}
{"smiles": "Cc1ccc2nc(-c3ccc(NC(=S)NC4CC(C)(C)NC(C)(C)C4)cc3)sc2c1", "EC50": "> 80 µM (inactive)"}
{"smiles": "Cc1ccc(-c2nnn(CC(=O)Nc3ccc(S(=O)(=O)N4CCC(C)CC4)cc3)n2)cc1", "EC50": "> 80 µM (inactive)"}
{"smiles": "COc1ccc(-c2c(-c3cc(OC)cc(OC)c3)n(C)c3ccc(-c4cnc(N)nc4)cc23)cc1", "EC50": "36.1 µM (inactive)"}
{"smiles": "Cc1cccc2cc(C(c3nnnn3Cc3ccccc3)N3CCCc4ccccc43)c(=O)[nH]c12", "note": "(configuration not stated)", "EC50": "32.5 µM (inactive)"}
{"smiles": "O=C(C[C@@H]1C/C=C/CC[C@H](Cc2ccc(F)cc2)C(=O)OC[C@@H](Cc2ccccc2)NC1=O)N[C@H](CO)Cc1ccccc1", "EC50": "18.8 µM"}
{"smiles": "COc1cccc(-c2sc3ccccc3c2-c2ccc(OCCN(C)C)cc2)c1", "EC50": "> 80 µM (inactive)"}
{"smiles": "Cc1ccc(C(=O)Cn2c(C(=O)/C=C/c3ccccc3)nc3ccccc32)cc1", "EC50": "44.8 µM (inactive)"}
{"smiles": "COc1cc(-c2noc(C)c2/C=C/c2ccc(OC(C)=O)cc2)cc(OC)c1OC", "EC50": "> 80 µM (inactive)"}
{"smiles": "Cc1ccc(-c2nnc(-c3ccc(NC(=O)Cc4cccs4)cc3)o2)cc1", "EC50": "> 80 µM (inactive)"}
{"smiles": "CC1=Nc2ccccc2/C1=C\\c1sc(Nc2ccc(C)cc2)nc1O", "EC50": "> 80 µM (inactive)"}
{"smiles": "O=c1cc(CN2CCN(c3ccc(F)cc3)CC2)c2cc3c(cc2o1)CCCC3", "EC50": "17.6 µM"}
{"smiles": "O=C(NCCC1=CCCCC1)C(=O)NCC(c1ccco1)N1CCN(c2ccc(F)cc2)CC1", "note": "(configuration not stated)", "EC50": "> 80 µM (inactive)"}
{"smiles": "CCc1ccc2[nH]c3nc(SCC(=O)NNC(=O)c4ccc(C(C)(C)C)cc4)nnc3c2c1", "EC50": "32.3 µM (inactive)"}
{"smiles": "CCOc1cc2c3c(c1)C(C)=CC(C)(C)N3C(=O)C2=O", "EC50": "54.6 µM (inactive)"}
{"smiles": "CCc1cccc(CC)c1NC(=O)/C(C#N)=C/c1ccccc1C(F)(F)F", "EC50": "> 80 µM (inactive)"}
{"smiles": "Cc1ccc(Cn2c(C(C)Nc3nc(-c4ccc(F)cc4)cs3)nc3cc(Cl)c(Cl)cc32)cc1", "note": "(configuration not stated)", "EC50": "> 80 µM (inactive)"}
{"smiles": "CC(C)N(C(=O)[C@H]1C[C@H](CC(=O)NCC23CC4CC(CC(C4)C2)C3)C(=O)N2CCc3c([nH]c4ccc(Cl)cc34)[C@]12C)C(C)C", "EC50": "> 80 µM (inactive)"}
{"smiles": "Cc1ccc(NC(=O)c2cc(S(=O)(=O)N(C)C)ccc2N2CCCC2)cc1S(=O)(=O)N(C)C", "EC50": "32.1 µM (inactive)"}
{"smiles": "Cc1nn(Cc2ccccc2)c(C)c1NC(=O)CSc1nc(C2CC2)nc2c1cnn2-c1ccccc1", "EC50": "47.2 µM (inactive)"}
{"smiles": "O=C(/C=C/c1ccccc1)c1ccccc1O", "EC50": "> 80 µM (inactive)"}
{"smiles": "Cc1cc(N2CCN(c3nc(-c4ccc([N+](=O)[O-])cc4)cs3)CC2)c2ccccc2n1", "EC50": "> 80 µM (inactive)"}
{"smiles": "Oc1ccc(CN2CCC(Cc3ccccc3)CC2)c2cccnc12", "EC50": "> 80 µM (inactive)"}
{"smiles": "O=[N+]([O-])c1cc(-c2ccc(/C=N/c3nc4ccccn4c3-c3ccco3)o2)ccc1Cl", "EC50": "> 80 µM (inactive)"}
{"smiles": "CCc1cc2c(=O)c(-c3cnn(-c4ccccc4)c3)c(C)oc2cc1OCC(=O)Nc1cccc(C)c1", "EC50": "> 80 µM (inactive)"}
{"smiles": "CCCCN1C(=O)C(=O)c2cc(Cl)ccc21", "EC50": "52.4 µM (inactive)"}
{"smiles": "Nc1nc(Nc2ccccc2)nc(NC2CCCCC2)c1[N+](=O)[O-]", "EC50": "29.2 µM (inactive)"}
{"smiles": "CC1(C)C=Cc2c(c3c(c4c(=O)c(-c5ccc(O)cc5)coc24)OC(C)(C)CC3)O1", "EC50": "> 80 µM (inactive)"}
{"smiles": "C/C(=N/NC(=O)c1ccc(C)s1)c1cccc(NC(=O)COc2ccc(Cl)cc2C)c1", "EC50": "72.4 µM (inactive)"}
{"smiles": "Cc1ccc(NC(=O)Cn2c(/C=C/c3ccccc3)nc3ccccc32)cc1C", "EC50": "> 80 µM (inactive)"}
{"smiles": "C#CCn1c(=NC(=O)c2ccc(Br)s2)sc2cccc(OC)c21", "EC50": "> 80 µM (inactive)"}
{"smiles": "Cc1cc(C)nc(SCc2ccc(C(=O)N/N=C/c3cccc(O)c3O)cc2)n1", "EC50": "> 80 µM (inactive)"}
{"smiles": "COC(=O)c1c(NC(=O)c2nc3ccccc3s2)sc2c1CC(C)(C)NC2(C)C", "EC50": "> 80 µM (inactive)"}
{"smiles": "Cc1ccc(-c2[nH]ncc2/C=N/n2c(COc3ccccc3)nc3ccccc3c2=O)cc1", "EC50": "> 80 µM (inactive)"}
{"smiles": "COc1cc(/C=N/Nc2nc(Nc3ccccc3)nc(-n3nc(C)cc3C)n2)cc(OC)c1OC", "EC50": "> 80 µM (inactive)"}
{"smiles": "Cc1c(CCOC(=O)C23CC4(C)CC(C)(CC(C)(C4)C2)C3)sc[n+]1CC(=O)c1ccccc1", "EC50": "> 80 µM (inactive)"}
{"smiles": "Cc1cc(C)cc(NC(=O)/C(C#N)=C/c2cn(CC(=O)NCc3ccco3)c3ccccc23)c1", "EC50": "9.17 µM"}
{"smiles": "Nc1nc(-c2cc(O)ccc2[N+](=O)[O-])cc(-c2ccccc2)c1[N+](=O)[O-]", "EC50": "8.27 µM"}
{"smiles": "Cc1cc(C)c2c(c1)/C(=N/Nc1ccc(S(N)(=O)=O)cc1[N+](=O)[O-])CCC2", "EC50": "> 80 µM (inactive)"}
{"smiles": "COC(=O)c1sccc1NC(=O)c1cc(-c2cccc(C)c2)nc2ccccc12", "EC50": "> 80 µM (inactive)"}
{"smiles": "O=C(Nc1ccc(C(F)(F)F)cc1)c1cc(-c2cccnc2)nc2ccc(Br)cc12", "EC50": "15.6 µM"}
{"smiles": "CCCCCCCCCCOC(=O)Cn1c(COc2ccc(Cl)cc2)[n+](C)c2ccccc21", "EC50": "> 80 µM (inactive)"}
{"smiles": "O=C(NN1C(=O)/C(=C/c2ccc(O)c(O)c2)SC1=S)c1ccccc1", "EC50": "> 80 µM (inactive)"}
{"smiles": "O=C1NC(=O)N(Cc2ccccc2Cl)C(=O)/C1=C/c1cccs1", "EC50": "> 80 µM (inactive)"}
{"smiles": "COc1ccc(OCc2n(CC(=O)OC3CC(C)CCC3C(C)C)c3ccccc3[n+]2C)cc1", "note": "(configuration not stated)", "EC50": "> 80 µM (inactive)"}
{"smiles": "Clc1ccc(C2=Nn3c(nnc3-c3cc(-c4ccccc4)n[nH]3)SC2)cc1", "EC50": "> 80 µM (inactive)"}
{"smiles": "C#CCn1c(=NC(=O)c2ccc(S(=O)(=O)N3CCc4ccccc4C3)cc2)sc2cc(S(N)(=O)=O)ccc21", "EC50": "> 80 µM (inactive)"}
{"smiles": "Cc1ccc(N=Cc2c(O)n(-c3ccc4c(c3)OCO4)c(=O)c3ccccc23)cc1", "EC50": "> 80 µM (inactive)"}
{"smiles": "CCOC(=O)c1nnc(-c2ccc(C)cc2)nc1Oc1ccc(Cl)cc1Cl", "EC50": "40 µM (inactive)"}
{"smiles": "O=CC1=C(c2ccccc2)Oc2ccccc2O1", "EC50": "> 80 µM (inactive)"}
{"smiles": "COc1ccc(Nc2nc(N)c([N+](=O)[O-])c(NC3CCCCC3)n2)cc1", "EC50": "> 80 µM (inactive)"}
{"smiles": "CCOC(=O)c1c(NC(=O)CSc2nnc3c(n2)[nH]c2ccc(F)cc23)sc(C(C)=O)c1C", "EC50": "21.8 µM (inactive)"}
{"smiles": "CC(C)Cn1c2c(c(=O)[nH]c1=O)C(C(F)(F)F)(C(F)(F)F)N=C(CCC1CCCCC1)N2", "EC50": "> 80 µM (inactive)"}
{"smiles": "Cc1ccc(/C=C/C(=O)c2cc(Br)ccc2OC(=O)c2ccco2)cc1", "EC50": "37.9 µM (inactive)"}
{"smiles": "NC1=NC[C@@H](CC2CCCCC2)N1CCc1cc(C(F)(F)F)cc(C(F)(F)F)c1", "EC50": "> 80 µM (inactive)"}
{"smiles": "COc1cc(NC(=O)c2cncc(-c3ccc(C#N)cc3)c2)cc(C(=O)Nc2cccc(C(F)(F)F)c2)c1", "EC50": "46.3 µM (inactive)"}
